The subject of the experiment is different cancer cell lines (MCF-7, HCT-116, CaCO2). Description: MTT cytotoxicity assay, single substances vs combination, different cancer cell lines. The class given is cell-based. The settings on record: THC + alpha-bisabolol + guaiol vs single substance, 48 h. Here is the method: The following cell lines were used for the experiment: CaCO2 (Pharmacelsus), HCT-116 (ATCC, Cat #CCL-247), and MCF-7 (ECACC, Cat #86012803). All cell lines were maintained at 37° C., 5% CO2 and 95% humidity. The medium was replaced three times per week and the monolayer was sub-cultured in a ratio of 1:5 when the culture reaches a confluence of 80%. The specific cultivation medium for each cell line was as follows: CaCO2 cell line was cultured in DMEM (PAN-Biotech, Cat #P04-03500) supplemented with 10% FBS Good (PAN-Biotech, Cat #P40-37500) and 1% NEAA (PAN-Biotech, Cat #P08-32100), HCT-116 cell line was cultured in McCoy's A5 medium (PAN-Biotech, Cat #P04-05500) supplemented with 10% FBS Good, and MCF-7 cell line was cultured in RPMI 1640 (PAN-Biotech, Cat #P04-16500) supplemented with 10% FBS and 2 mM GlutaMAX (Gibco, Cat #35050). All cell culture media were routinely supplemented with 1% Penicillin/Streptomycin (PAN-Biotech, Cat #P06-07100).
For the cytotoxicity assay, cells were seeded into 96-well flat bottom microtiter plates at a density of 10,000 cells/well and allowed to attach to the plate for 24 hours before the start of the experiment. […]
Quantification of viable cells was performed by using commercial MTT assay kit (Cell Proliferation Kit I (MTT), Sigma, Cat #11465007001). […] The formazan crystals formed are solubilized and the resulting coloured solution is quantified.
Cells were prepared as described in Example 1.1. […] Conversion of MTT to formazan was recorded by measuring the absorbance at 570 nm with reference wavelength 650 nm by using a spectrophotometer (Spectramax Plus, Molecular Devices). […]
On the technique in general: Tetrazolium assays rely on reduction of a dye to a coloured formazan, in cell work by metabolically active cells.
As to `CCCCCc1cc(O)c2c(c1)OC(C)(C)[C@@H]1CCC(C)=C[C@@H]21` [THC, delta-9-tetrahydrocannabinol], the “IC50 values in combinatory treatment compared to single treatment” value was “remain unchanged”.
As for `C[C@H]1CC[C@@H](C(C)(C)O)CC2=C1CC[C@@H]2C` [guaiol], the entry is “remarkably reduced”; as for `CC(C)=CCC[C@](C)(O)[C@@H]1CC=C(C)CC1` [alpha-bisabolol], “remarkably reduced”.

For the origin of these results see patent US20250325566A1, “C[…]-9-TETRAHYDROCANNABINOL AND TERPENES” (Vertanical GmbH, priority 2022, published 2025).
